This is an account of results in patent publication US11555035B2, “Heterocyclic compound and harmful arthropod-controlling agent containing same” (SUMITOMO CHEMICAL COMPANY, LIMITED, priority 2017, dated 2023).

This data set relates to German cockroaches (Blattella germanica). Briefly: Test method 9: treated filter paper with sucrose, German cockroaches. The note with it: 500 ppm, 0.7 mL on filter paper, male adults, after 6 days. The class given is in vivo. The method, then: Next, Test Examples are used to show effects of the Present compounds on harmful arthropods. In the following Test Examples, the tests were carried out at 25° C.
Each test compound is formulated according to the process described in the Formulation Example 5 to obtain each formulation, and water is added thereto to prepare a diluted solution containing a prescribed concentration of each test compound.
A filter paper having a diameter of 5.5 cm is lined with the inside bottom of a cup having a diameter of 5.5 cm, each of said diluted solutions (0.7 mL) is added dropwise on the filter paper, and sucrose (30 mg) is homogeneously placed into said cup as a feed. Two(2) male adult German cockroaches (Blattella germanica) are released into said cup, and the cup is covered. After 6 days, life and death of the German cockroach are examined, the number of the dead insects is counted, and the mortality of insects is calculated by the following equation. Mortality(%)=(Number of dead insects/Number of test insects)×100

With `CCS(=O)(=O)c1cc(-c2ncc(C#N)cn2)cnc1-c1nc2cc(C(F)(F)F)cnc2n1C` [compound 2], the mortality – broadly, the share of the test organisms that died – was 100%. `CCS(=O)(=O)c1cc(-c2ncc(C#N)cn2)c(N)nc1-c1nc2cc(C(F)(F)F)cnc2n1C` [compound 7]: the mortality is on record as 100%.
